Assay results as given in US9365559B2, “Crystal form of Dabrafenib and preparation method of use thereof” (Hangzhou Pushai Pharmaceutical Technology Co., LTD., priority 2013, dated 2016).
Entries after “also recorded” stand apart in the source; their conditions may differ.

Assays:
Format in all cases: physicochemical
[1] = Crystal form stability during wet granulation tablet preparation (XRPD); details: for crystal form of API after physical blending with excipients: XRPD of Sample 1 vs Sample 3, lactose, microcrystalline cellulose, polyethylene glycol 6000; for crystal form of API in the wet granulation process: XRPD of Sample 2 vs Sample 1, 50% aqueous ethanol solution
Text: The Known Crystal Form 1, the Known Crystal Form 2 and Crystal Form VI of the present invention are examined for their stability during the formulation preparation of the wet granulation process.
The preparation process of the tablet is a parallel experiment.
(1) Blend API (selected from the Known Crystal Form 1, the Known Crystal Form 2 or Crystal Form VI of the present invention), lactose (monohydrate) and microcrystalline cellulose uniformly.
(2) Make the above mixture into soft materials by using an appropriate amount of 50% aqueous ethanol solution, screen to produce the wet granules and then dry the wet granules.
(3) Granulate the dried sample, blend with polyethylene glycol 6000 uniformly and then compress into tablets.
Respectively, take XRPD tests on the following samples obtained in the formulation preparing process of the Known Crystal Form 1, the Known Crystal Form 2 and Crystal Form VI of the present invention: (Sample 1) the sample obtained by physically blending API, lactose, microcrystalline cellulose with polyethylene glycol 6000 according to the preparation formula; (Sample 2) the sample obtained by granulating with API, lactose, microcrystalline cellulose and polyethylene glycol 6000 according to the “wet granulation” process (excluding the sample obtained after the Step (3)); (Sample 3) excluding API, the sample obtained by physically blending lactose, microcrystalline cellulose with polyethylene glycol 6000 according to the preparation formula.

[2] = Dynamic vapor sorption (DVS) hygroscopicity; details: from DVS, 20~80% RH
Procedure: The dynamic vapor sorption analysis (DVS) data are collected by TA Instruments Q5000 TGA; the instrument control software is Thermal Advantage and the analysis software is Universal Analysis. Generally, take 1˜10 mg of the sample and place it in a platinum pan, and the weight changes of the sample are recorded during the course of the relative humidity changing from 0% to 80% and then to 0%. According to the specifics of the samples, different adsorption and desorption steps may be used.
The hygroscopicity is obtained by DVS testing of the weight changes between 20%-80% RH.

[3] = Crystal form stability in oral suspension (XRPD); details: oral suspension; XRPD
Procedure: The preparation of the oral suspension containing the crystal forms of the present invention.
API (selected from Crystal Form VI of Dabrafenib of the present invention): 2 g;
Blend API (selected from Crystal Form VI of Dabrafenib of the present invention), cocklebur gum, sodium dihydrogen citrate, methylparaben, syrupus simplex and orange flavor, add water to 1,000 mL and stir the mixture uniformly. After that, divide the solution into 100 bottles with 20 mg API in each bottle.

[4] = Competition test (suspension of equal amounts stirred overnight, XRPD); details: for Competition test, comparison of stability (position in the rank order): in pure water, room temperature, stirred overnight
Text: The competition test is: take equal amount of the samples, and respectively place them in isopropanol or in a mixture of water (pure water) and ethanol (wherein the volume percentage of ethanol is 0%, 20%, 50%, 80% and 100%, respectively) to form a suspension, stir it overnight at room temperature, then compare their XRPDs.

[5] = Crystal form stability in capsules prepared by wet granulation (XRPD); details: capsules prepared by wet granulation process; XRPD
Text: The preparation of the capsules containing the crystal forms of the present invention.
3) Blend API (selected from the Known Crystal Form 1, the Known Crystal Form 2 and Crystal Form VI of the present invention), microcrystalline cellulose (avicel) and sodium carboxymethyl starch (SSG) uniformly.
4) Make the above mixture into soft materials by using an appropriate amount of 50% aqueous ethanol solution, then screen to produce the wet granules.
5) Dry the wet granules, grind and disperse uniformly and then transfer them into the capsules.

[6] = Polarized light microscopy (PLM) morphology
Text: Polarized Light Microscope (PLM) plots are collected from XP-500E polarized light microscope (by Shanghai Changfang Optical Instrument Co., Ltd). Place a small amount of powder sample on a slide glass, drip some mineral oil to disperse the powder sample, place the cover slip, then place the sample on the loading table of XP-500E polarized light microscope, choose the appropriate magnitude to observe the morphology of the sample and take pictures thereof.
The morphology comparison is obtained by PLM testing of particle shape and PSD testing of particle size.

[7] = Crystal form stability on stirring in or exposure to water, aqueous ethanol or other solvent; details: for crystal form stability in water: in water or other water containing system(s); for crystal form stability when stirred: stirred in water or aqueous ethanol solution at room temperature or high temperature (40° C.)
[8] = Storage stability test (XRPD before and after storing); details: placed at room temperature
Text: The storage stability test is: storing the sample under constant conditions (i.e. constant humidity or constant temperature) for a certain time, and then comparing the XRPDs before and after storing.

Compound | crystal form of API after physical blending with excipients [1] | crystal form of API in the wet granulation process [1] | crystal form stability in the wet granulation process or in the suspension [1] | hygroscopicity (in words) [2] | crystal form in oral suspension [3] | Competition test, comparison of stability ([4]; in isopropanol or ethanol) | Competition test, comparison of stability (position in the rank order) [4] | crystal form in capsules [5] | Morphology (particle shape) [6] | crystal form stability in water [7] | crystal form stability when stirred [7] | crystal form conversion in dichloromethane ([7]; stirring in dichloromethane followed by filtering and drying) | crystal form stability on standing [8]
CC(C)(C)c1nc(-c2cccc(NS(=O)(=O)c3c(F)cccc3F)c2F)c(-c2ccnc(N)n2)s1 [Known Crystal Form 1, N-{3-[5-(2-amino-4-pyrimidinyl)-2-(1,1-dimethylethyl)-1,3-thiazol-4-yl]-2-fluorophenyl}-2,6-difluorobenzenesulfonamide, reference compound] | keeps unchanged | partially or totally converted to Crystal Form VI of the present invention | unstable | some hygroscopicity | unstable and has converted to Crystal Form VI of the present invention | Form 1 >The other three crystal forms. | >Crystal Form VII of the present | unstable and has converted to Crystal Form VI of the present invention | small block-shaped crystals | readily converts to other form(s) | convert to Crystal Form VI of the present invention; also recorded: unstable |  | 
CC(C)(C)c1nc(-c2cccc(NS(=O)(=O)c3c(F)cccc3F)c2F)c(-c2ccnc(N)n2)s1 [Known Crystal Form 2, N-[3-[5-(2-aminopyrimidin-4-yl)-2-(tert-butyl)thiazo-4-lyl]-2-fluorophenyl]-2,6-difluorobenzenesulfonamide, reference compound] | keeps unchanged | partially or totally converted to Crystal Form VI of the present invention | unstable |  | unstable and has converted to Crystal Form VI of the present invention |  | invention >The Known Crystal Form 2 | unstable and has converted to Crystal Form VI of the present invention | small block-shaped crystals | would convert to other form(s) | convert to Crystal Form VI of the present invention; also recorded: unstable | can convert to the Known Crystal Form 1 | 
CC(C)(C)c1nc(-c2cccc(NS(=O)(=O)c3c(F)cccc3F)c2F)c(-c2ccnc(N)n2)s1 [Known Crystal Form 3, N-[3-[5-(2-aminopyrimidin-4-yl)-2-(tert-butyl)thiazo-4-lyl]-2-fluorophenyl]-2,6-difluorobenzenesulfonamide, reference compound] |  |  |  |  |  |  |  |  |  | may convert to other form(s) |  |  | extremely unstable; also recorded: can convert to the Known Crystal Form 1; also recorded: converts to the Known Crystal Form 1
